The nature of the series: Measurement of the particle diameter of the acetaminophen active pharmaceutical ingredients (dry laser diffraction). Format: physicochemical. The settings on record: dispersion air pressure 0.5 bar. The source says:
There may be some differences between manufacturing lots. In addition, the volume-average particle diameter (MV) of the present acetaminophen active pharmaceutical ingredient can be in the range from 100 to 350 μm and may be in the range from 120 to 330 μm. There may be some differences between manufacturing lots. The particle size distribution in the present invention is acquired by evaluation of the volumetric distribution using dry particle diameter measurement by a laser diffraction method (Laser Micron Sizer LMS-2000e (Seishin Enterprise Co., Ltd.)). D50 is the particle diameter at the 50% accumulation of the individual volumes from the small diameter side of the particle size distribution, and is referred to as the median particle diameter. (3) Measurement of the Particle Diameter of the Acetaminophen Active Pharmaceutical Ingredients The acetaminophen active pharmaceutical ingredients were subjected to dry measurement of the particle diameter by a laser diffraction method. A Laser Micron Sizer LMS-2000e (Seishin Enterprise Co., Ltd.) was used for measurement of the particle size distribution. The measurement was carried out at a dispersion compressed air pressure of 0.5 bar.
Take `CC(=O)Nc1ccc(O)cc1` [AA API g, acetaminophen]: the D10 was found to be 125 μm, the “D50 (median particle diameter)” value worked out at 288 μm, the D90 was 516 μm and the “MV (volume-average particle diameter)” value was determined as 306 μm.
For `CC(=O)Nc1ccc(O)cc1` [AA API b, acetaminophen] the same measures were 62 μm, 191 μm, 353 μm and 202 μm.
For `CC(=O)Nc1ccc(O)cc1` [AA API a, acetaminophen] the same measures were 73 μm, 224 μm, 404 μm and 234 μm.
`CC(=O)Nc1ccc(O)cc1` [AA API f, acetaminophen]: the D10 turned out to be 42 μm, the “D50 (median particle diameter)” value is on record as 202 μm, the D90 was 426 μm and the “MV (volume-average particle diameter)” value worked out at 222 μm.
For `CC(=O)Nc1ccc(O)cc1` [AA API e, acetaminophen] the same measures were 5.7 μm, 26 μm, 116 μm and 46 μm.
For `CC(=O)Nc1ccc(O)cc1` [AA API d, acetaminophen] the same measures were 75 μm, 419 μm, 855 μm and 452 μm.
For `CC(=O)Nc1ccc(O)cc1` [AA API c, acetaminophen] the same measures were 27 μm, 147 μm, 357 μm and 173 μm.

Source of the values: patent publication US12653797B2, “Tablet and method for manufacturing same” (AYUMI PHARMACEUTICAL CORPORATION, priority 2020, dated 2026).
